What all share (assay type): cell-based
In assay [1] the target is T1, OCT3 (Homo sapiens, UniProt O75751).
T1 construct: expressed in transfected cells; host or cells: HEK293, stably transfected; gift from Dr. Koepsell and Dr. Gorbulev (University of Würzburg)
T1 sequence (O75751 1-556): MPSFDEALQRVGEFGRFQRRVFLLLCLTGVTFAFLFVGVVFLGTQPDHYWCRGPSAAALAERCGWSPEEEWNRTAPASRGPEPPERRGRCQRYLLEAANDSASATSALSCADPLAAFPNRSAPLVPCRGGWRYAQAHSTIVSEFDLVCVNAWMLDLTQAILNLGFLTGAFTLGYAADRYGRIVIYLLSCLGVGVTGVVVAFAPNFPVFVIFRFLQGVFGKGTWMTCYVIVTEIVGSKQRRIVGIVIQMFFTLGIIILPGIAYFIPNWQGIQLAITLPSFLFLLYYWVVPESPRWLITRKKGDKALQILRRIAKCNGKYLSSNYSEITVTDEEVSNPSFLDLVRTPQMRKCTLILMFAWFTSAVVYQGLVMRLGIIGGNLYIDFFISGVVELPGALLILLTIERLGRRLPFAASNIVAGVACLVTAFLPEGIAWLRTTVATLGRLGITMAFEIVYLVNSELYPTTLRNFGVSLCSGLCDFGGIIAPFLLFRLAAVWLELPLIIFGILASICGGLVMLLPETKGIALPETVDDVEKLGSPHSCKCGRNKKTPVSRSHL
Kind of assay: Cellular uptake ratio, OCT3-overexpressing HEK293 cells vs empty vector. The conditions noted are these: for OCT3 transport category: based on ratio uptake data at 1 µM. A digest of the protocol:
(§1)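 Flp-In HEK293 cells stably expressing transporter, or empty pcDNA5/FRT vector as control, incubated at 37 °C in HBSS with 10 mM HEPES, pH 7.4, with substrate. Uptake quantified by LC-MS with internal standard and normalised to total protein. Ratio = total uptake in transporter cells divided by that in empty-vector cells.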

Assay [2] has as its target T2, wild-type human OCT2 (Homo sapiens, UniProt O15244).
T2 sequence (O15244 1-555): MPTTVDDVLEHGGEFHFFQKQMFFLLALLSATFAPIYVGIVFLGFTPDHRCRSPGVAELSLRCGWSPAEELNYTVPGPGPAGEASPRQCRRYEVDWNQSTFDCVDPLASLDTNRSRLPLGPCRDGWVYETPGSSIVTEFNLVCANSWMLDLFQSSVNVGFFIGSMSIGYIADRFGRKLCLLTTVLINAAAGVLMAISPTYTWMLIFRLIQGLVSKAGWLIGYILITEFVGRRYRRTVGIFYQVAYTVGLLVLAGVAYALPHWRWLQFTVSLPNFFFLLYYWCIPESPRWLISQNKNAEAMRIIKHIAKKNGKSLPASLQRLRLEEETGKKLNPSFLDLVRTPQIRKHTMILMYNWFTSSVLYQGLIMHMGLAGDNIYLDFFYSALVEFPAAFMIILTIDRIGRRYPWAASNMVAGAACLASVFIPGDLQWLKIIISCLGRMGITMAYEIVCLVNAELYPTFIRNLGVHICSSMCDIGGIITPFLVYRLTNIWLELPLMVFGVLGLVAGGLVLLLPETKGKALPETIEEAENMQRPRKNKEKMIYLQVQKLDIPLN
Kind of assay: Cellular uptake ratio, OCT2-overexpressing HEK293 cells vs empty vector. Particulars: for OCT2 transport category: based on ratio uptake data at 1 µM; for uptake by OCT2 (normalised to empty vector): 1 µM and 100 µM substance. A digest of the protocol:
as §1

Assay [3] addresses T3, mutant human OCT1 D474N (Homo sapiens, UniProt O15245, D474N).
T3 construct: expressed in transfected cells
T3 sequence (O15245 1-554 D474N): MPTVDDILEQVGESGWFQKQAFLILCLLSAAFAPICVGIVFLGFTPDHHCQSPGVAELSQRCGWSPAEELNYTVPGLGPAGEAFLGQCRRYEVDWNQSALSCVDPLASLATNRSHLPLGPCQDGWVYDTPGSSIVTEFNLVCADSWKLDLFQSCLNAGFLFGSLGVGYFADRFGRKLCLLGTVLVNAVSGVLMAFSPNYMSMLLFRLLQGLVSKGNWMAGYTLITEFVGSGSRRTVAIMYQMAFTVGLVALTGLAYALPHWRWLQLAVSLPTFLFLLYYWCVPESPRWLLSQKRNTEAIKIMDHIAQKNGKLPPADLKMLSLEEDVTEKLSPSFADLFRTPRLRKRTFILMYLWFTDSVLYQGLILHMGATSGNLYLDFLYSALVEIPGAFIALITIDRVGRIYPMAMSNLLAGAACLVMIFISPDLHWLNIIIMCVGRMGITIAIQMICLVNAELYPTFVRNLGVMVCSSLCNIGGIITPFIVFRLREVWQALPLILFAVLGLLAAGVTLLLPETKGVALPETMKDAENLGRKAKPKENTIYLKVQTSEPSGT
In words: Cellular uptake by HEK293 cells overexpressing variant OCT1 D474N. The conditions noted are these: 1, 10 and 100 µM, 120 s.

The structures appear in SMILES notation. Entries after “also recorded” stand apart in the source; their conditions may differ.

Regarding `N=C(N)c1ccc(OCCCCCOc2ccc(C(=N)N)cc2)cc1` [Pentamidine, pentamidine], in assay [1], the OCT3 transport category is 0 (no transport by OCT1, OCT2, and OCT3 occurred (i.e., no kinetic parameters or uptake ratio <2 without significance)). In addition, in assay [2], the OCT2 transport category is 0 (no transport by OCT1, OCT2, and OCT3 occurred (i.e., no kinetic parameters or uptake ratio <2 without significance)).

For the compound `CCCCC[C@H](O)/C=C/[C@H]1[C@H](O)CC(=O)[C@@H]1C/C=C\CCCC(=O)O` [Prostaglandin E2, prostaglandin E2], the “uptake of prostaglandins by OCT1 D474N in comparison to wild-type” value in assay [3] is “reduced to the level of the control cell line; also recorded: almost abolished”.

Consider `CCCCC[C@H](O)/C=C/[C@@H]1[C@@H](C/C=C\CCCC(=O)O)[C@@H](O)C[C@H]1O` [Prostaglandin F2α, prostaglandin F2α], for which the “uptake of prostaglandins by OCT1 D474N in comparison to wild-type” value in assay [3] was “reduced to the level of the control cell line”.

With `N[C@@H](Cc1ccc(O)c(O)c1)C(=O)O` [Levodopa, levodopa], in assay [1], the OCT3 transport category was 0 (no transport by OCT1, OCT2, and OCT3 occurred (i.e., no kinetic parameters or uptake ratio <2 without significance)). Moreover, the OCT2 transport category in assay [2] was 0 (no transport by OCT1, OCT2, and OCT3 occurred (i.e., no kinetic parameters or uptake ratio <2 without significance)).

With `COc1cc(Cc2cnc(N)nc2N)cc(OC)c1OC` [Trimethoprim, trimethoprim], the OCT3 transport category in assay [1] is 0 (no transport by OCT1, OCT2, and OCT3 occurred (i.e., no kinetic parameters or uptake ratio <2 without significance)). Further, in assay [2], the “uptake by OCT2 (normalised to empty vector)” value is given as “only minimal” and the OCT2 transport category entry is “+/− (poor transport with a Clint < 5 or ratio between 1–2 with statistical significance (p < 0.05))”.

Consider `Nc1nc(=O)n([C@@H]2CS[C@H](CO)O2)cc1F` [Emtricitabine, emtricitabine], for which the “uptake ratio by OCT3 (normalised to empty vector)” value in assay [1] (1 µM and 100 µM substance) is listed as “below 2”. Besides, the “uptake by OCT2 (normalised to empty vector)” value in assay [2] is “cellular uptake by OCT2 was observed”.

For the compound `Nc1ccn([C@H]2CC[C@@H](CO)O2)c(=O)n1` [Zalcitabine, zalcitabine], the OCT3 transport category in assay [1] was 0 (no transport by OCT1, OCT2, and OCT3 occurred (i.e., no kinetic parameters or uptake ratio <2 without significance)). In addition, in assay [2], the “uptake by OCT2 (normalised to empty vector)” value is “cellular uptake by OCT2 was observed” and the OCT2 transport category result is given as “+ (good substrates of OCTs when the intrinsic clearance is between 5–15 or the ratio is 2–10)”.

The record behind these values is article PMC9687798, “Atypical Substrates of the Organic Cation Transporter 1” (Biomolecules, 2022).
